Measurements taken from PubChem BioAssay (NCI).
Where “and” joins values, the source holds several entries; their conditions need not be identical. Equal entries are not always repeated.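 A five-concentration, 48-hour dose response in 96-well plates underlies each endpoint, interpolated linearly between surrounding concentrations. At the GI50, growth is halved. At the TGI there is no net growth.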 Calls of active or inactive are those of the source. Rule as the data show it: active = GI50 below about 0.43 µM; inactive = the rest.

How the values were obtained:
Assay in all cases: inhibition of tumour cell growth, NCI panel, 48 h
CAKI-1 renal = system: CAKI-1 renal
ACHN renal = system: ACHN renal
OVCAR-4 ovarian = system: OVCAR-4 ovarian
UO-31 renal = system: UO-31 renal
COLO 205 colon = system: COLO 205 colon
CCRF-CEM leukemia = system: CCRF-CEM leukemia
A498 renal = system: A498 renal
SNB-19 CNS = system: SNB-19 CNS
EKVX NSCLC = system: EKVX NSCLC
SNB-78 CNS = system: SNB-78 CNS
KM20L2 colon = system: KM20L2 colon
DLD-1 colon = system: DLD-1 colon
HL-60(TB) leukemia = system: HL-60(TB) leukemia
786-0 renal = system: 786-0 renal
SNB-75 CNS = system: SNB-75 CNS
SF-295 CNS = system: SF-295 CNS
NCI-H522 lung = system: NCI-H522 lung
MALME-3M melanoma = system: MALME-3M melanoma
HOP-92 NSCLC = system: HOP-92 NSCLC
SK-OV-3 ovarian = system: SK-OV-3 ovarian
DMS 114 small cell lung = system: DMS 114 small cell lung
OVCAR-3 ovarian = system: OVCAR-3 ovarian
HT29 colon = system: HT29 colon
UACC-257 melanoma = system: UACC-257 melanoma
MOLT-4 leukemia = system: MOLT-4 leukemia
TK-10 renal = system: TK-10 renal
NCI-H460 lung = system: NCI-H460 lung
IGROV1 ovarian = system: IGROV1 ovarian
HOP-18 NSCLC = system: HOP-18 NSCLC
DMS 273 small cell lung = system: DMS 273 small cell lung
M14 melanoma = system: M14 melanoma
SK-MEL-28 melanoma = system: SK-MEL-28 melanoma
M19-MEL melanoma = system: M19-MEL melanoma
U251 CNS = system: U251 CNS
SF-268 CNS = system: SF-268 CNS
OVCAR-5 ovarian = system: OVCAR-5 ovarian
NCI-H23 lung = system: NCI-H23 lung
KM12 colon = system: KM12 colon
NCI-H226 lung = system: NCI-H226 lung
SW-620 colon = system: SW-620 colon
HCT-15 colon = system: HCT-15 colon
XF 498 CNS = system: XF 498 CNS
LOX IMVI melanoma = system: LOX IMVI melanoma
UACC-62 melanoma = system: UACC-62 melanoma
HCC-2998 colon = system: HCC-2998 colon
K-562 leukemia = system: K-562 leukemia
OVCAR-8 ovarian = system: OVCAR-8 ovarian
HOP-62 NSCLC = system: HOP-62 NSCLC
HCT-116 colon = system: HCT-116 colon
SF-539 CNS = system: SF-539 CNS
SK-MEL-2 melanoma = system: SK-MEL-2 melanoma
A549 NSCLC = system: A549 NSCLC
RXF 393 renal = system: RXF 393 renal
SR leukemia = system: SR leukemia
SN12C renal = system: SN12C renal
RPMI-8226 leukemia = system: RPMI-8226 leukemia
SK-MEL-5 melanoma = system: SK-MEL-5 melanoma

**Q.** Which TGI (CAKI-1 renal) does the source give for `N/C(=N\N=C/c1c2ccccc2c(Cl)c2ccccc12)NO` here?
**A.** 19.5 µM and 18.5 µM

**Q.** What about the GI50 (ACHN renal) of the same compound?
**A.** 3.84 µM

**Q.** What about the TGI (ACHN renal) of the same compound?
**A.** 15.8 µM and 13.8 µM

**Q.** And the GI50 (OVCAR-4 ovarian)?
**A.** 2.62 µM

**Q.** And the TGI (OVCAR-4 ovarian)?
**A.** 20.4 µM and 15 µM

**Q.** And the GI50 (UO-31 renal)?
**A.** 2.36 µM

**Q.** And the TGI (UO-31 renal)?
**A.** 22.5 µM and 7.44 µM

**Q.** And the GI50 (COLO 205 colon)?
**A.** 3.22 µM

**Q.** And the TGI (COLO 205 colon)?
**A.** 14.1 µM and 14.7 µM

**Q.** And the GI50 (CCRF-CEM leukemia)?
**A.** 1.37 µM

**Q.** And the TGI (CCRF-CEM leukemia)?
**A.** 13.7 µM

**Q.** What about the TGI (A498 renal) of the same compound?
**A.** 29 µM

**Q.** What about the GI50 (SNB-19 CNS) of the same compound?
**A.** 7.87 µM

**Q.** And the TGI (SNB-19 CNS)?
**A.** 24.1 µM and 21.3 µM

**Q.** What about the TGI (EKVX NSCLC) of the same compound?
**A.** 15.5 µM and 13.5 µM

**Q.** What about the TGI (SNB-78 CNS) of the same compound?
**A.** 25.3 µM and 30.5 µM

**Q.** And the TGI (KM20L2 colon)?
**A.** 4.81 µM

**Q.** And the TGI (DLD-1 colon)?
**A.** 20.1 µM and 19.1 µM

**Q.** What about the TGI (HL-60(TB) leukemia) of the same compound?
**A.** 7.31 µM

**Q.** What about the GI50 (786-0 renal) of the same compound?
**A.** 5.63 µM

**Q.** And the TGI (786-0 renal)?
**A.** 26.1 µM and 19.6 µM

**Q.** What about the TGI (SNB-75 CNS) of the same compound?
**A.** 25.8 µM and 32 µM

**Q.** And the GI50 (SF-295 CNS)?
**A.** 13 µM

**Q.** What about the TGI (SF-295 CNS) of the same compound?
**A.** 10.4 µM and 26.1 µM

**Q.** And the GI50 (NCI-H522 lung)?
**A.** 1.8 µM

**Q.** What about the TGI (NCI-H522 lung) of the same compound?
**A.** 14.2 µM and 3.98 µM

**Q.** What about the TGI (MALME-3M melanoma) of the same compound?
**A.** 19.4 µM

**Q.** What about the GI50 (HOP-92 NSCLC) of the same compound?
**A.** 10.8 µM

**Q.** And the TGI (HOP-92 NSCLC)?
**A.** 12.3 µM and 28.7 µM

**Q.** And the TGI (SK-OV-3 ovarian)?
**A.** 10.5 µM

**Q.** And the GI50 (DMS 114 small cell lung)?
**A.** 2.79 µM

**Q.** What about the TGI (DMS 114 small cell lung) of the same compound?
**A.** 12.8 µM and 10.2 µM

**Q.** What about the TGI (OVCAR-3 ovarian) of the same compound?
**A.** 14 µM

**Q.** What about the GI50 (HT29 colon) of the same compound?
**A.** 2.84 µM

**Q.** And the TGI (HT29 colon)?
**A.** 15.6 µM and 8.47 µM

**Q.** And the GI50 (UACC-257 melanoma)?
**A.** 4.25 µM

**Q.** What about the TGI (UACC-257 melanoma) of the same compound?
**A.** 11.8 µM and 14.6 µM

**Q.** And the TGI (MOLT-4 leukemia)?
**A.** 37.2 µM

**Q.** And the outcome (MOLT-4 leukemia)?
**A.** inactive

**Q.** What about the TGI (TK-10 renal) of the same compound?
**A.** 24.3 µM

**Q.** And the GI50 (NCI-H460 lung)?
**A.** 2.81 µM

**Q.** What about the TGI (NCI-H460 lung) of the same compound?
**A.** 11 µM and 9.94 µM

**Q.** And the TGI (IGROV1 ovarian)?
**A.** 15.5 µM and 18.5 µM

**Q.** And the TGI (HOP-18 NSCLC)?
**A.** 10.7 µM and 13.9 µM

**Q.** And the TGI (DMS 273 small cell lung)?
**A.** 3.89 µM

**Q.** What about the GI50 (M14 melanoma) of the same compound?
**A.** 2.65 µM

**Q.** What about the TGI (M14 melanoma) of the same compound?
**A.** 25.1 µM and 9.47 µM

**Q.** And the TGI (SK-MEL-28 melanoma)?
**A.** 27.6 µM and 27.5 µM

**Q.** What about the GI50 (M19-MEL melanoma) of the same compound?
**A.** 5.4 µM

**Q.** What about the TGI (M19-MEL melanoma) of the same compound?
**A.** 19.6 µM and 18.6 µM

**Q.** What about the TGI (U251 CNS) of the same compound?
**A.** 20 µM and 20.6 µM

**Q.** And the GI50 (SF-268 CNS)?
**A.** 10.2 µM

**Q.** What about the TGI (SF-268 CNS) of the same compound?
**A.** 26 µM and 27.4 µM

**Q.** What about the GI50 (OVCAR-5 ovarian) of the same compound?
**A.** 2.54 µM

**Q.** What about the TGI (OVCAR-5 ovarian) of the same compound?
**A.** 10.2 µM and 8.81 µM

**Q.** And the GI50 (NCI-H23 lung)?
**A.** 6.51 µM

**Q.** What about the TGI (NCI-H23 lung) of the same compound?
**A.** 17.3 µM and 19.8 µM

**Q.** What about the GI50 (KM12 colon) of the same compound?
**A.** 4.01 µM

**Q.** And the TGI (KM12 colon)?
**A.** 21.7 µM and 16 µM

**Q.** What about the TGI (NCI-H226 lung) of the same compound?
**A.** 6.86 µM

**Q.** What about the GI50 (SW-620 colon) of the same compound?
**A.** 1.86 µM

**Q.** And the TGI (SW-620 colon)?
**A.** 18 µM and 3.68 µM

**Q.** And the GI50 (HCT-15 colon)?
**A.** 2.57 µM

**Q.** What about the TGI (HCT-15 colon) of the same compound?
**A.** 19.4 µM and 6.72 µM

**Q.** What about the GI50 (XF 498 CNS) of the same compound?
**A.** 3.26 µM

**Q.** What about the TGI (XF 498 CNS) of the same compound?
**A.** 30.5 µM and 17.1 µM

**Q.** What about the TGI (LOX IMVI melanoma) of the same compound?
**A.** 12.2 µM

**Q.** And the GI50 (UACC-62 melanoma)?
**A.** 1.63 µM

**Q.** What about the TGI (UACC-62 melanoma) of the same compound?
**A.** 4.39 µM and 3.3 µM

**Q.** And the GI50 (HCC-2998 colon)?
**A.** 1.85 µM

**Q.** And the TGI (HCC-2998 colon)?
**A.** 13.7 µM and 3.97 µM

**Q.** What about the GI50 (K-562 leukemia) of the same compound?
**A.** 3.17 µM

**Q.** And the GI50 (OVCAR-8 ovarian)?
**A.** 1.99 µM

**Q.** What about the TGI (OVCAR-8 ovarian) of the same compound?
**A.** 18.9 µM and 4.92 µM

**Q.** What about the GI50 (HOP-62 NSCLC) of the same compound?
**A.** 5.71 µM

**Q.** What about the TGI (HOP-62 NSCLC) of the same compound?
**A.** 27.8 µM and 22.9 µM

**Q.** And the GI50 (HCT-116 colon)?
**A.** 1.76 µM

**Q.** What about the TGI (HCT-116 colon) of the same compound?
**A.** 13.8 µM and 3.36 µM

**Q.** And the GI50 (SF-539 CNS)?
**A.** 8.44 µM

**Q.** And the TGI (SF-539 CNS)?
**A.** 21.3 µM and 21.8 µM

**Q.** What about the GI50 (SK-MEL-2 melanoma) of the same compound?
**A.** 3.61 µM

**Q.** And the TGI (SK-MEL-2 melanoma)?
**A.** 23.3 µM and 16.9 µM

**Q.** And the GI50 (A549 NSCLC)?
**A.** 2.25 µM

**Q.** What about the TGI (A549 NSCLC) of the same compound?
**A.** 11 µM and 5.57 µM

**Q.** What about the GI50 (RXF 393 renal) of the same compound?
**A.** 4.61 µM

**Q.** And the TGI (RXF 393 renal)?
**A.** 3.5 µM and 17.9 µM

**Q.** And the outcome (SR leukemia)?
**A.** inactive

**Q.** And the GI50 (SN12C renal)?
**A.** 2.21 µM

**Q.** What about the TGI (SN12C renal) of the same compound?
**A.** 19.4 µM and 5.58 µM

**Q.** And the TGI (RPMI-8226 leukemia)?
**A.** 26.6 µM

**Q.** What about the outcome (RPMI-8226 leukemia) of the same compound?
**A.** inactive

**Q.** And the GI50 (SK-MEL-5 melanoma)?
**A.** 2.39 µM

**Q.** And the TGI (SK-MEL-5 melanoma)?
**A.** 16.6 µM and 6.5 µM
